Assay results as given in patent US20120064008A1, “COMPOSITIONS FOR THE TREATMENT OF METASTATIC CANCER AND METHODS OF USE THEREOF” (priority 2009, published 2012).
Entries after “also recorded” stand apart in the source; their conditions may differ. Where two headings read alike, the source gives them in different places.

Key:
[1] = tested on: PC3MLN4 human prostate cancer cells; assay: Cyquant cell viability assay, PC3MLN4; settings: for EC50: Homo sapiens, 72 h, read-out: ED50 PC3MLN4 DMSO
Description: PC3M and PC3MLN4 cells were treated with vehicle, fenbendazole in DMSO, and fenbendazole in DMSO/NMP/TWEEN®-80/CrEL in varying doses for 72 hours. Cell viability assays using Cyquant reagent (Invitrogen, C7026) were performed as described in the literature. […] cells were seeded in 96 well plates overnight, before treated with either vehicle or benzimidazole solubilized in DMSO alone or in DMSO (12.5%)/NMP ([…])/TWEEN®-80 (25%)/Cr-EL (25%) for 72 hours. Cells were harvested by removing the media, washing once with phosphate buffered saline (PBS) and freezing at −80° C. for overnight. After thawing to room temperature, Cyquant reagent were prepared and added to the wells and the fluorescence intensity were measured with a spectrometer at 485 nm. Percent control was calculated by dividing the reading from drug-treated cells with the reading from vehicle-treated cells.
ED50 values were calculated from dose-effect analysis performed with Compusyn using data from the Cyquant cell viability assays.
ED50 values were calculated from dose-effect analysis performed with Compusyn using data from the Cyquant cell viability assays. All benzimidazoles drugs were solubilized in the combination carrier.

[2] = Combination with paclitaxel, Cyquant cell growth inhibition, CompuSyn median-dose effect analysis; assay type: cell-based; settings: alone or in combination
Description: Cell growth inhibition assays were performed using Cyquant reagent as described above. Drug interactions were quantitated by median-dose effect analysis and combination index values as well as dose reduction index were derived using CompuSyn software (ComboSyn, Inc.), as described previously in the literature. CI values of <1, =1, and >1 indicate synergism, additivity and antagonism between the drugs, respectively.
All benzimidazole drugs were prepared using the combination carrier and diluted with culture medium prior to treatment.

[3] = tested on: AT6.1 Dunning rat prostate carcinoma; assay: Survival in intravenous AT6.1 Dunning rat prostate carcinoma lung metastasis model; assay type: in vivo, nu/nu mice; settings: for average survival time: FIG. 5 (carrier only 20.4 days); for survival: 100 mg/kg, FIG. 6 (control 24.25 days)
Description: Many anti-tumor drugs are tested only for their ability to prevent primary tumor growth or to prevent the dissemination of metastatic cells. To accomplish this, the drug is usually administered shortly after the primary tumor is established. […] The benzimidazoles described herein were evaluated in an experimental metastases model in the lungs of nude mice following tail-vein injection of Dunning rat AT6.1 prostate carcinoma. […] In order to achieve greater bioavailability, we first solubilized benzimidazoles in DNTC formulation and then diluted with saline prior to injection.
Inbred male nu/nu mice age 6-8 weeks were obtained from Massachusetts General Hospital (Boston, Mass.). The mice were virus antibody free, age and weight matched for experimental use and fed with a balanced rodent diet ad libitum. AT6.1 Dunning rat prostate cells were maintained as described above. 1×10^4 log-phase cells were injected via tail vein in 0.1 mL Hanks solution. Vehicle or drug treatment was started on day 5 post inoculation and given three times a week (Monday, Wednesday and Friday) via intraperitoneal injection in 0.5 mL volume. Benzimidazole drugs were prepared in the combination carrier [DMSO (12.5%), NMP (37.5%), TWEEN®-80 (25%) and CrEL (25%)] and diluted in saline. Vehicle control was prepared by diluting the combination carrier with saline.
During the course of treatment, the mice were monitored for toxicity by measuring body weight. […] Animals were euthanized with CO2 and tissues were collected for further analysis. The animals and experiments used in these studies were approved by the institutional animal care committee according to Children's Hospital Boston ARCH guidelines.
To distinguish differences in survival between these groups, the percent increase in life span (ILS %), defined as the percent increase in the mean time to death of drug-treated animals over the corresponding time to death for vehicle-treated mice, was calculated.

[4] = tested on: paclitaxel-resistant PC3-TR prostate cancer cells; assay: Cyquant cell viability assay, PC3-TR; assay type: cell-based, human; settings: Homo sapiens, read-out: ED50 PC3-TR
Description: The cytotoxic effects of paclitaxel, fenbendazole, and albendazole were compared in paclitaxel-resistant PC3-TR and DU145-TR prostate cancer cells with their paclitaxel-sensitive counterparts, PC3 and DU145 cells. Cells were treated for 72 hours with vehicle, paclitaxel, fenbendazole or albendazole in various doses. Cell viability was measured using Cyquant assay, and percent control was calculated by dividing the fluorescent reading from drug-treated cells with those from vehicle-treated cells, indicating percentage of cell survival.

[5] = tested on: AT6.1 Dunning rat prostate carcinoma; assay: Tumor burden by blood Gaussia luciferase assay in AT6.1 model; assay type: in vivo, nu/nu mice; settings: 100 mg/kg; until day 22; FIG. 9
Source text: Similar to the survival model, treatment was not begun until day 5 when micrometastases were confirmed growing in the lung. For this approach, the AT6.1 cells were engineered to express secreted Gaussia luciferase enzyme. Using measurement of luciferase activity from the peripheral blood as an indicator of overall tumor burden, a significant reduction of tumor burden in the lungs of benzimidazole-treated animals when compared to vehicle-treated mice was observed. After 22 days, the mice were sacrificed and the lungs examined for viable tumor colonies.
Blood Gaussia luciferase assay was performed as described in the literature. Briefly, 10-20 μL peripheral blood was collected from the animals once a week via the retro-orbital vein. Secreted GAR luciferase activity was measured using a luminometer by adding 100 μL of 100 μM coelentrazine (Prolume, Nanolight, #303) to 5 μL blood and 2 μL of 20 mM EDTA. Relative luciferase reading from the blood collected represents the tumor burden in each animal. The reading was performed with blood collected at day 19 post inoculation when all mice were still alive.

AT6.1 lung metastases = assay: Ki-67 and caspase-3 staining of lung tumor sections; assay type: in vivo, mice; settings: 50 mg/kg, combination carrier; FIG. 10
Description: To investigate whether benzimidazoles treatment affects cell proliferation and apoptosis in vivo, immunohistochemical analysis of the cell proliferation marker, Ki-67 and of the apoptotic marker, activated caspase-3 was performed on mouse lung sections from each group.
Tumor cells in the lungs of rats treated with saline and 50 mg/kg fenbendazole (formulation in the combination carrier) were analyzed by Ki-67 and caspase-3 antibody staining. Tissues were collected and fixed in formalin before processed for paraffin embedding. Tissue sections were then processed for Ki-67 and caspase-3 antibody staining, using the protocol established at Dana Farber Cancer Institute/Harvard Cancer Center Research Pathology Core. At least five random 200× magnification images were photographed from each animal. Distinct and strong nuclear Ki67 staining of tumor cells were counted using Image J software (NIH, Bethesda, […].).

[6] = 100 mg/kg i.p. three times a week, over vehicle-treated mice

For CCCSc1ccc2nc(NC(=O)OC)[nH]c2c1 [Albendazole, albendazole], the EC50 [1] was 4680 nM, the “cytotoxicity in the combination carrier compared to DMSO alone” value ([1]; PC3MLN4 cells, 72 hours) was “greater cytotoxicity” and the “cytotoxicity in highly metastatic cells relative to PC-3M” value ([1]; PC-3MLN4 (b184 also AT6.1) relative to PC-3M) was “greater cytotoxicity”. The “Dose ABZ” value ([2]; Fa 0.60) was 5.249 µM, the average survival time ([3]; 50 mg/kg i.p. three times a week from day 5) was 24.4 days and the average survival time ([3]; 100 mg/kg i.p. three times a week from day 5) was 32 days. For the same compound, the “percent increase in life span (ILS %)” value [3, 6] was 59.7%, the survival [3] was 38.75 days and the “percent increase in life span (ILS %)” value ([3]; 250 mg/kg three times a week) was 64%. The EC50 ([4]; 72 h) was 800 nM and the “tumor burden compared to the control” value [5] was “significant reduction in tumor burden”.
In the case of COC(=O)Nc1nc2ccc(Sc3ccccc3)cc2[nH]1 [Fenbendazole, fenbendazole], the “cytotoxicity in the combination carrier compared to DMSO alone” value [1] is reported as “greater cytotoxicity”, the EC50 [1] is reported as 1930 nM and the “reduction in ED50, DNTC compared to DMSO, PC-3MLN4” value ([1]; solubilized in DNTC vs DMSO) is reported as ~2 fold. For the same compound, the EC50 ([2]; Fa 0.50, read-out: Dose FBZ) was 6210 nM, the “percent increase in life span (ILS %)” value [3, 6] was 45.3% and the survival [3] was 35.25 days. For the same compound, the “tumor cell proliferation (Ki67 staining) compared to control” value (AT6.1 lung metastases) was “less proliferation of tumor cells; also recorded: marked reduction in tumor cell proliferation”, the EC50 ([4]; 72 hours, paclitaxel-resistant) was 320 nM and the “tumor burden compared to the control” value [5] was “significant reduction in tumor burden”.
